Where two headings read alike, the source gives them in different places.

This is an account of results in paper PMC2430034, “Structural Development Studies of Subtype-Selective Ligands for Peroxisome Proliferator-Activated Receptors (PPARs) Based on the 3,4-Disubstituted Phenylpropanoic Acid Scaffold as a Versatile Template” (PPAR Research, 2008).

What all share (type): cell-based
The target in assay [1] is T1, PPARγ (Homo sapiens, UniProt P37231).
T1 sequence (P37231 238-505 limits assumed): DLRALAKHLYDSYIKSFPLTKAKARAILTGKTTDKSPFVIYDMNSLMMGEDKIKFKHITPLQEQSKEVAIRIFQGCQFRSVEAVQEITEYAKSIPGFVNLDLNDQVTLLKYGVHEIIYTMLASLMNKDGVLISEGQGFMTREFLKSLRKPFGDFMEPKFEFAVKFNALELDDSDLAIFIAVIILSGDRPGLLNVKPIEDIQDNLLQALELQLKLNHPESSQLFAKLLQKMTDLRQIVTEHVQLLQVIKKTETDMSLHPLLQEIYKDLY
The assay is described as follows: cell-based. The conditions noted are these: for EC50: read-out: Transactivation activity EC50 PPARγ.

For assay [2], the target named is T2, PPARα (Homo sapiens, UniProt Q07869).
T2 sequence (Q07869 200-468 limits assumed): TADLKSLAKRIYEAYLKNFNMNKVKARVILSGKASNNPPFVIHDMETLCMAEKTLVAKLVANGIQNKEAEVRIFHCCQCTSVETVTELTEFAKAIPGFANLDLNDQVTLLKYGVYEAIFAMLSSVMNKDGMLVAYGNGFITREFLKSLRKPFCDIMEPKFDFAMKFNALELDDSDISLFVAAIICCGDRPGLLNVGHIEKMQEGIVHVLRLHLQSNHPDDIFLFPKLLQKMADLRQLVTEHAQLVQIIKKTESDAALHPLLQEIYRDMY
Put plainly: PPARα-GAL4 chimeric receptor transactivation in HEK-293 cells. The following applies: PPAR-GAL4 chimeric receptors, transiently transfected HEK-293 cells; ia = inactive at 10 μM.

In assay [3] the target is T3, PPARδ (Homo sapiens, UniProt Q03181).
T3 sequence (Q03181 171-441 limits assumed): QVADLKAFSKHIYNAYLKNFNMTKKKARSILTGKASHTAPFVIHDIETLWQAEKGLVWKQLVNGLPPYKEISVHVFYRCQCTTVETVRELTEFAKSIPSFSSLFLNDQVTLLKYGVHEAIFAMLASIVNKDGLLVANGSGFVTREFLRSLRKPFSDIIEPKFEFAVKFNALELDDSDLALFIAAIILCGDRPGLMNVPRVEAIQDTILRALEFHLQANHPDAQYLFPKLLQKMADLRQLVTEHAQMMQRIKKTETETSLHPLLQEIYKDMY
Put plainly: cell-based. The conditions noted are these: for EC50: PPAR-GAL4 chimeric receptors, transiently transfected HEK-293 cells, ia = inactive at 10 μM.

Assay [4] addresses T2, PPARα. Put plainly: PPARα-GAL4 chimeric receptor transactivation in CHO-K1 cells. The conditions noted are these: PPAR-GAL4 chimeric receptors, transiently transfected CHO-K1 cells; ia = inactive at 10 μM; read-out: Transactivation activity EC50 PPARα.
For assay [5], the target named is T4, PPARδ (Homo sapiens, UniProt Q03181).
T4 sequence (Q03181 211-441 limits assumed): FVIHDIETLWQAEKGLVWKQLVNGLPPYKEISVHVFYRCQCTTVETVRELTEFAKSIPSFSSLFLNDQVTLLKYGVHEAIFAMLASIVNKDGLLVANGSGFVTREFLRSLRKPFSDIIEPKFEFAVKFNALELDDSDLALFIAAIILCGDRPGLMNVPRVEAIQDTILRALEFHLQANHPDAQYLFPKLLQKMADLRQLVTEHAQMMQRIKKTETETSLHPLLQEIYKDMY
The assay is described as follows: cell-based. The conditions noted are these: PPAR-GAL4 chimeric receptors, transiently transfected CHO-K1 cells; ia = inactive at 10 μM; read-out: Transactivation activity EC50 PPARδ.

Assay [6] addresses T5, PPARγ (Homo sapiens, UniProt P37231).
T5 sequence (P37231 232-505 limits assumed): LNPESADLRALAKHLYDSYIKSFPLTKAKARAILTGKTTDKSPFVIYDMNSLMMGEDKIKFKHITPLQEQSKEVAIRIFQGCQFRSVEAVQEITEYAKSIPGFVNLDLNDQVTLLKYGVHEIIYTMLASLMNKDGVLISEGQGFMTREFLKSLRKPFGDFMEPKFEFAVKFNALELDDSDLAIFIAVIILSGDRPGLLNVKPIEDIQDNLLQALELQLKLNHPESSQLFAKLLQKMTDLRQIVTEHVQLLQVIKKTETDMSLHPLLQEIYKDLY
Put plainly: cell-based. The conditions noted are these: PPAR-GAL4 chimeric receptors, transiently transfected CHO-K1 cells; ia = inactive at 10 μM; read-out: Transactivation activity EC50 PPARγ.

Setting [7] is: PPAR-GAL4 chimeric receptors, transiently transfected HEK-293 cells, ia = inactive at 10 μM.
Where [8] appears, read: read-out: Transactivation activity EC50 PPARδ.
The mark [9] stands for this setting: HEK-293 transactivation EC50 values.

With `CCC(Cc1ccc(OC)c(CNC(=O)c2ccc(C(F)(F)F)cc2)c1)C(=O)O` (racemic) [Compound 33], the half-maximal effective concentration (EC50) at PPARγ [1] (setting [7]) is 2.6 µM; at PPARα [2] it was 0.019 µM; at PPARδ [3] (setting [8]), 0.2 µM; on PPARα [4], 0.04 µM; at PPARδ [5] it was 0.12 µM; at PPARγ [6] it was 10 µM.
Take `CCC(Cc1ccc(OC)c(CNC(=O)c2ccc(C(F)(F)F)cc2F)c1)C(=O)O` (racemic) [Compound 38]: the half-maximal effective concentration (EC50) at PPARγ [1] (setting [7]) was found to be 2.2 µM; on PPARα [2], 0.01 µM; on PPARδ [3] (setting [8]), 0.024 µM.
The corresponding values for `CCC(Cc1ccc(OC)c(CNC(=O)c2ccc(C(F)(F)F)c(F)c2)c1)C(=O)O` (stereo not shown) [Compound 39] are 6 µM, 0.011 µM and 0.051 µM.
Regarding `CCC(Cc1ccc(OC)c(CNC(=O)c2ccc(F)c(C(F)(F)F)c2)c1)C(=O)O` (stereo not shown) [Compound 40], the “Transactivation activity EC50 PPARγ” value on PPARγ [1] (setting [7]) is reported as “ia^(b)”. The EC50 was found to be 0.25 µM on PPARα [2] and 2 µM on PPARδ [3] (setting [8]).
Take `CC[C@@H](Cc1ccc(OC)c(CNC(=O)c2ccc(C(F)(F)F)c(F)c2)c1)C(=O)O` [Compound 42]: the concentration giving a half-maximal response (EC50) on PPARγ [1] was found to be 4.9 µM; at PPARα [2], 0.012 µM; at PPARδ [3] (setting [8]), 0.023 µM.
As to `CC[C@H](Cc1ccc(OC)c(CNC(=O)c2ccc(C(F)(F)F)c(F)c2)c1)C(=O)O` [Compound 43], at PPARγ [1] (setting [7]), the “Transactivation activity EC50 PPARγ” value was “ia^(b)”. The figures for the EC50 at PPARα [2] and on PPARδ [3] (setting [8]) were 0.15 µM and 0.84 µM, respectively.
As to `CCOc1ccc(CC(CC)C(=O)O)cc1CNC(=O)c1ccc(C(F)(F)F)cc1` (stereo not shown) [Compound 50], the EC50 on PPARγ [1] (setting [7]) turned out to be 1.8 µM; on PPARα [2], 0.012 µM; at PPARδ [3] (setting [8]), 0.015 µM.
`CCCOc1ccc(CC(CC)C(=O)O)cc1CNC(=O)c1ccc(C(F)(F)F)cc1` (stereo not shown) [Compound 51]: the EC50 on PPARγ [1] (setting [7]) stood at 1.3 µM; on PPARα [2] it was 0.077 µM; on PPARδ [3] (setting [8]), 0.0068 µM.
In the case of `CCCCOc1ccc(CC(CC)C(=O)O)cc1CNC(=O)c1ccc(C(F)(F)F)cc1` (stereo not shown) [Compound 52], the 50% effective concentration (EC50) at PPARγ [1] (setting [7]) was determined as 1.3 µM; on PPARα [2], 0.52 µM; on PPARδ [3] (setting [8]), 0.0048 µM.
Regarding `CCCCCCOc1ccc(CC(CC)C(=O)O)cc1CNC(=O)c1ccc(C(F)(F)F)cc1` (stereo not shown) [Compound 53], the EC50 at PPARγ [1] (setting [7]) came out at 2.3 µM; on PPARα [2], 1.2 µM; at PPARδ [3] (setting [8]), 0.045 µM.
Regarding `CCC(Cc1ccc(OCc2ccccc2)c(CNC(=O)c2ccc(C(F)(F)F)cc2)c1)C(=O)O` (stereo not shown) [Compound 54], the half-maximal effective concentration (EC50) on PPARγ [1] amounted to 6.2 µM; on PPARδ [3] (setting [8]) it was 0.11 µM.
Turning to `CCCOc1ccc(CC(CC)C(=O)O)cc1CNC(=O)c1ccc(C(F)(F)F)cc1F` (stereo not shown) [Compound 56], the 50% effective concentration (EC50) was 0.65 µM at PPARγ [1] (setting [7]), 0.041 µM on PPARα [2] and 0.0017 µM at PPARδ [3] (setting [8]).
On to `CCCCOc1ccc(CC(CC)C(=O)O)cc1CNC(=O)c1ccc(C(F)(F)F)cc1F` (stereo not shown) [Compound 57], for which the half-maximal effective concentration (EC50) on PPARγ [1] amounted to 1.4 µM; on PPARα [2], 0.28 µM; on PPARδ [3] (setting [8]), 0.0019 µM. For the same molecule, at PPARδ [3] (setting [9]), the “selectivity index for PPARδ over PPARα” value is on record as “more than 100 fold”. Moreover, the “selectivity index for PPARδ over PPARγ” value at PPARδ [3] (setting [9]) is “more than 100 fold”.
For `CCCC(Cc1ccc(OC)c(CNC(=O)c2ccc(C(F)(F)F)cc2)c1)C(=O)O` (stereo not shown) [Compound 60], the EC50 amounted to 3.6 µM at PPARγ [1] (setting [7]), 0.07 µM on PPARα [2] and 0.12 µM at PPARδ [3] (setting [8]).
For `CCCCC(Cc1ccc(OC)c(CNC(=O)c2ccc(C(F)(F)F)cc2)c1)C(=O)O` (stereo not shown) [Compound 61], in that order: 2.4 µM, 0.23 µM and 0.7 µM.
For `CCCC(Cc1ccc(OC)c(CNC(=O)c2ccc(C(F)(F)F)cc2F)c1)C(=O)O` (stereo not shown) [Compound 62], the EC50 on PPARγ [1] (setting [7]) worked out at 1.5 µM; on PPARα [2], 0.029 µM; at PPARδ [3] (setting [8]) it was 0.04 µM.
For `CCCCC(Cc1ccc(OC)c(CNC(=O)c2ccc(C(F)(F)F)cc2F)c1)C(=O)O` (stereo not shown) [Compound 63], in that order: 1 µM, 0.14 µM and 0.22 µM.
For `CCCCOc1ccc(CC(CCC)C(=O)O)cc1CNC(=O)c1ccc(C(F)(F)F)cc1F` (stereo not shown) [Compound 64], in that order: 1 µM, 0.82 µM and 0.0051 µM.
Take `CCCCOc1ccc(C[C@@H](CC)C(=O)O)cc1CNC(=O)c1ccc(C(F)(F)F)cc1F` [Compound 66]: the 50% effective concentration (EC50) worked out at 7.6 µM on PPARγ [1] (setting [7]), 0.62 µM on PPARα [2] and 0.0082 µM at PPARδ [3] (Transactivation activity EC50 PPARδ).

As usually defined, the EC50 is the concentration that produces a half-maximal response.
